pEC50, pIC50: −log10 of the molar value.
Legend:
[1] = target: RDLbdI/V (Drosophila melanogaster, UniProt P25123, I283V); assay: cell-based
[2] = target: RDLbdI/VA^301S (Drosophila melanogaster, UniProt P25123, A301S/I283V); assay: cell-based
Sequence of RDLbdI/VA^301S (P25123 45-606 I283V/A301S): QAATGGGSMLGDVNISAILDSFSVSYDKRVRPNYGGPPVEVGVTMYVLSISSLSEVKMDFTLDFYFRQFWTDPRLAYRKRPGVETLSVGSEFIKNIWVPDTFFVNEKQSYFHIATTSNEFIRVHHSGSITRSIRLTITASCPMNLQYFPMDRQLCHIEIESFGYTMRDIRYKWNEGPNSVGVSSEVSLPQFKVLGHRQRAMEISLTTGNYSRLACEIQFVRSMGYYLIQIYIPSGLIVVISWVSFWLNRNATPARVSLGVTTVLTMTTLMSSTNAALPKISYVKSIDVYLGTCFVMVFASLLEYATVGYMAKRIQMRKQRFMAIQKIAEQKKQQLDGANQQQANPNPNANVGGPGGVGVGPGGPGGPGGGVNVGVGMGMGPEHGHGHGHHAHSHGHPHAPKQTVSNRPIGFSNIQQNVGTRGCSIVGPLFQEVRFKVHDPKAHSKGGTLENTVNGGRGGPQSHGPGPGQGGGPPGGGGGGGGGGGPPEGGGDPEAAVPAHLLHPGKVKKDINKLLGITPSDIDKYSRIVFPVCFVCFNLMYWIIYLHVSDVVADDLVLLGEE

Sequence of RDLbdI/V (P25123 45-606 I283V): as the sequence (P25123 45-606 I283V/A301S) above, with S257A counted along it

SMILES | pIC50 [1] | pIC50 [2] | pEC50 [1]
CC[C@H](C)[C@H]1O[C@]2(CC[C@@H]1C)C[C@@H]1C[C@@H](C/C=C(\C)[C@@H](O[C@H]3C[C@H](OC)[C@@H](O[C@H]4C[C@H](OC)[C@@H](O)[C@H](C)O4)[C@H](C)O3)[C@@H](C)/C=C/C=C3\CO[C@@H]4[C@H](O)C(C)=C[C@@H](C(=O)O1)[C@]34O)O2 [IVM, ivermectin] | 6.33 | 5.92 | 
NC/C=C/C(=O)O [TACA, trans-4-aminocrotonic acid] |  |  | 3.58
NCc1cc(=O)[nH]o1 [muscimol] |  |  | 4.02
NCCC(=O)O [β-alanine] |  |  | 2.51

Reference: PMC4019635 (PLoS ONE, 2014)
